Measured values published in patent US8962825B2, “Hydroxamates as inhibitors of histone deacetylase” (GlaxoSmithKline Intellectual Property Development Limited, priority 2006, dated 2015).

Experiments:
[1] = tested on: U937 cells; test: U937 cell inhibition assay (WST-1 cell viability); assay type: cell-based
Experimental: (§1) Cancer cell lines (U937 and HUT) growing in log phase were harvested and seeded at 1000-2000 cells/well (100 μl final volume) into 96-well tissue culture plates. Following 24 h of growth cells were treated with Compound. Plates were then re-incubated for a further 72-96 h before a WST-1 cell viability assay was conducted according to the suppliers (Roche Applied Science) instructions.
(§2) Data were expressed as a percentage inhibition of the control, measured in the absence of inhibitor, as follows: % inhibition=100−[(S^i/S^o)×100] where S^i is the signal in the presence of inhibitor and S^o is the signal in the presence of DMSO.
(§3) Dose response curves were generated from 8 concentrations (top final concentration 10 μM, with 3-fold dilutions), using 6 replicates.
(§4) IC50 values were determined by non-linear regression analysis, after fitting the results to the equation for sigmoidal dose response with variable slope (% activity against log concentration of Compound), using Graphpad Prism software.

[2] = tested on: HUT cells; test: HUT cell inhibition assay (WST-1 cell viability); assay type: cell-based; settings: 72-96 h
Experimental: as §1, §2, §3, §4

[3] = tested on: HeLa cells; test: HeLa cell inhibition assay (sulphorhodamine B cell viability); assay type: cell-based; settings: 72 h, SRB
Experimental: HeLa cells growing in log phase were harvested and seeded at 1000 cells/well (200 μl final volume) into 96-well tissue culture plates. Following 24 h of cell growth cells were treated with Compounds (final concentration of 20 μM). Plates were then re-incubated for a further 72 h before a sulphorhodamine B (SRB) cell viability assay was conducted according to the methodology described by Skehan et al, J. Natl. Canc. Inst., 1990, 82, 1107-1112.
Data were expressed as a percentage inhibition of the control, measured in the absence of inhibitor, as follows:— % inhibition=100−[(S^i/S^o)×100] where S^i is the signal in the presence of inhibitor and S^o is the signal in the presence of DMSO.
(§5) IC50 values were determined by non-linear regression analysis, after fitting the results of eight data points to the equation for sigmoidal dose response with variable slope (% activity against log concentration of Compound), using Graphpad Prism software.

[4] = biological target: T1, histone deacetylase activity (HeLa nuclear extract); test: Histone deacetylase activity (Biomol Fluor de Lys HDAC fluorescent activity assay); assay type: biochemical; settings: Fluor de Lys substrate
T1 construct: Histone deacetylase activity from crude nuclear extract derived from HeLa cells was used for screening
Experimental: The ability of compounds to inhibit histone deacetylase activities was measured using the commercially available HDAC fluorescent activity assay from Biomol. In brief, the Fluor de Lys™ substrate, a lysine with an epsilon-amino acetylation, is incubated with the source of histone deacetylase activity (HeLa nuclear extract) in the presence or absence of inhibitor. Deacetylation of the substrate sensitises the substrate to Fluor de Lys™ developer, which generates a fluorophore. Thus, incubation of the substrate with a source of HDAC activity results in an increase in signal that is diminished in the presence of an HDAC inhibitor.
Data are expressed as a percentage of the control, measured in the absence of inhibitor, with background signal being subtracted from all samples, as follows: % activity=[(S^i−B)/(S^o−B)]×100 where S^i is the signal in the presence of substrate, enzyme and inhibitor, S^o is the signal in the presence of substrate, enzyme and the vehicle in which the inhibitor is dissolved, and B is the background signal measured in the absence of enzyme.
as §5
Histone deacetylase activity from crude nuclear extract derived from HeLa cells was used for screening. The preparation, purchased from 4C (Seneffe, Belgium), was prepared from HeLa cells harvested whilst in exponential growth phase. The nuclear extract was prepared according to the methodology described by J. D. Dignam, Nucl. Acid. Res., 1983, 11, 1475-1489, snap frozen in liquid nitrogen and stored at −80° C. The final buffer composition was 20 mM Hepes, 100 mM KCl, 0.2 mM EDTA, 0.5 mM DTT, 0.2 mM PMSF and 20% (v/v) glycerol.

Molecule `O=C(NO)c1cnc(N2CCC(CN[C@H](C(=O)OC3CCCC3)C3CCCCC3)CC2)nc1` [Example 18, Cyclopentyl (2S)-cyclohexyl[({1-[5-(hydroxycarbamoyl)pyrimidin-2-yl]piperidin-4-yl}methyl)amino]acetate] has an IC50 ([1]; Homo sapiens, U-937, 72-96 h) of under 330 nM, an IC50 [2] of 331 to 3300 nM and an IC50 ([3]; Homo sapiens) of 331 to 3300 nM. The IC50 [4] was under 100 nM.
Molecule `CC(C)C[C@H](NCc1ccc(CNC2CCN(c3ncc(C(=O)NO)cn3)CC2)cc1)C(=O)OC1CCCC1` [Example 27, Cyclopentyl N-{4-[({1-[5-(hydroxycarbamoyl)pyrimidin-2-yl]piperidin-4-yl}amino)methyl]benzyl}-L-leucinate] has an IC50 ([1]; Homo sapiens, U-937, 72-96 h) of under 330 nM, an IC50 [2] of under 330 nM and an IC50 ([3]; Homo sapiens) of 331 to 3300 nM. It also gave an IC50 [4] of under 100 nM.
`O=C(NO)c1cnc(N2CCC(NCc3ccc(CN[C@H](C(=O)OC4CCCC4)c4ccccc4)cc3)CC2)nc1` [Example 29] showed an IC50 ([1]; Homo sapiens, U-937, 72-96 h) of under 330 nM, an IC50 [2] of 331 to 3300 nM and an IC50 ([3]; Homo sapiens) of 331 to 3300 nM. For the same molecule, the IC50 [4] was under 100 nM.
`O=C(NO)c1cnc(N2CCC(NCc3ccc(CN[C@H](C(=O)OC4CCCC4)c4ccccc4)cc3)CC2)nc1` [Example 31] gave an IC50 ([1]; 72-96 h) of under 330 nM, an IC50 [2] of 331 to 3300 nM and an IC50 [3] of 331 to 3300 nM. It also gave an IC50 [4] of 101 to 1000 nM.
`O=C(NO)c1cnc(N2CCC(NCc3ccc(CN[C@H](C(=O)OC4CCCC4)c4ccccc4)cc3)CC2)nc1` [Example 33] showed an IC50 ([1]; 72-96 h) of under 330 nM, an IC50 [2] of under 330 nM and an IC50 [3] of 331 to 3300 nM. The IC50 [4] was under 100 nM.
With `O=C(NO)c1cnc(N2CC3C(CNCc4ccc(CN[C@H](C(=O)OC5CCCC5)c5ccccc5)cc4)C3C2)nc1` (stereo partly drawn) [Example 35, Cyclopentyl (2S)-[(4-{[({3-[5-(hydroxycarbamoyl)pyrimidin-2-yl]-3-azabicyclo[3.1.0]hex-6-yl}methyl)amino]methyl}benzyl)amino](phenyl)acetate] the IC50 ([1]; Homo sapiens, U-937, 72-96 h) was 331 to 3300 nM, the IC50 [2] was 331 to 3300 nM and the IC50 ([3]; Homo sapiens) was 331 to 3300 nM. For the same molecule, the IC50 [4] was under 100 nM.
Work on `O=C(NO)c1cnc(N2CCC(CNCc3ccc(CN[C@H](C(=O)OC4CCCC4)C4CCCCC4)cc3)CC2)nc1` [Example 38, Cyclopentyl (2S)-cyclohexyl[(4-{[({1-[5-(hydroxycarbamoyl)pyrimidin-2-yl]piperidin-4-yl}methyl)amino]methyl}benzyl)amino]acetate] yielded an IC50 ([1]; Homo sapiens, U-937, 72-96 h) of under 330 nM, an IC50 [2] of 331 to 3300 nM and an IC50 ([3]; Homo sapiens) of under 330 nM. The IC50 [4] was under 100 nM.
